Patent US10654834B2 (Venenum Biodesign, LLC, priority 2016, dated 2020)

Experiments:
Type in all cases: cell-based
[1] = target: T1, human TGR5 receptor (Homo sapiens, UniProt Q8TDU6); assay: Human TGR5 cAMP production assay (hTGR5-CHO cells, DiscoveRx cAMP XS+ kit); details: luminescent cAMP assay, read-out: Human TGR5 Lum. cAMP Activity (EC50)
T1 construct: host or cells: CHO-K1 (hTGR5-CHO)
T1 sequence (Q8TDU6 1-330): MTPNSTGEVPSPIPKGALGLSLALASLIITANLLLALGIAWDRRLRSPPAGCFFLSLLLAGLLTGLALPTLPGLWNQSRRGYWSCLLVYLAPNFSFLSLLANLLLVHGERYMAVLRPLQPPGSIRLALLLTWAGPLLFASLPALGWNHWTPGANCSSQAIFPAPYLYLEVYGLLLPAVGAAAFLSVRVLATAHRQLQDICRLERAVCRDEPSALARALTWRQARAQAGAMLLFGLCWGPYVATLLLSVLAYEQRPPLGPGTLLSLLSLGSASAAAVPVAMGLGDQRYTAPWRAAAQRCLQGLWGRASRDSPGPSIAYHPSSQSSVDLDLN
Method in brief: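 EC50 values come from luminescent enzyme-complementation cAMP detection, read after overnight incubation. Beforehand, hTGR5-expressing CHO-K1 cells with IBMX and anti-cAMP antibody were exposed 1 h at room temperature to serially diluted (half-log) compounds.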

[2] = target: T2, mouse TGR5 receptor (Mus musculus, UniProt Q80SS6); assay: Mouse TGR5 HTRF cAMP production assay (HEK293-EBNA cells, Cisbio cAMP HiRange kit); details: HEK293-EBNA cells overexpressing mouse TGR5, HTRF cAMP assay
T2 construct: host or cells: HEK293-EBNA (293 c18, ATCC CRL10852)
T2 sequence (Q80SS6 1-329): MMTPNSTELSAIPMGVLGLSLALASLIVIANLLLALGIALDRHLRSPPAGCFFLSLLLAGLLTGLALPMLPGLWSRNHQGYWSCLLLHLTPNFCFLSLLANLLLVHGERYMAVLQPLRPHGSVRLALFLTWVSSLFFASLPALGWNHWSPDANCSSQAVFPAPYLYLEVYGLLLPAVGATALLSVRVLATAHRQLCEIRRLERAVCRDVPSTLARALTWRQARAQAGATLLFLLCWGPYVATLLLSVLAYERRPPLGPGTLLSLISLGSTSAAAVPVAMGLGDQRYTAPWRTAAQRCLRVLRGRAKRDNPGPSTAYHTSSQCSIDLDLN
Method in brief: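 cAMP accumulation was read by competitive HTRF after 1 h room-temperature compound treatment, with a further 1 h conjugate incubation. Cells were mouse TGR5-overexpressing HEK293-EBNA in serum-free DMEM plus 500 μM IBMX. Compounds ran as 12-point half-log series in duplicate, and EC50 values were reported.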

[3] = test system: Mouse STC-1 cells; assay: STC-1 GLP-1 assay (GLP-1 secretion); details: Mouse STC-1 cells, GLP-1 secretion, 2 h; read-out: Mouse STC-1 HTRF GLP-1 Activity (EC50)
Method: Compounds of the present invention were evaluated for their ability to induce GLP-1 production in mouse intestinal neuroendocrine tumor cells.
Mouse STC-1 cells were cultured and maintained in high glucose DMEM (Sigma #5796) supplemented with 15% horse serum, 5% Fetal Bovine Serum (FBS), 1%° penicillin/streptomycin, and 2 mM L-alanine L-glutamine (GlutaMax). Two days prior to analysis of GLP-1 secretion cells were harvested using Accutase (Sigma), spun down then resuspended in high glucose DMEM media containing 2 mM L-alanine L-glutamine (GlutaMax), 10% charcoal-dextran stripped FBS, and 50 μg/mL Gentamicin, at a density of 100,000° cells/mL. 100 μL of cell suspension was added to each well of a 96-well Poly-D-Lysine coated culture plate (Sigma; cat #2382493) and was incubated at 37° C. with 5% CO2.
Compounds were initially diluted in 100% DMSO (12-point serial dilution by half logs) in a 96-well plate and then were further diluted 1:500 in Hanks' Balanced Salt Solution (HBSS) containing protease inhibitor cocktail, DPP-IV inhibitor, and 0.1% fatty acid free bovine serum albumin. On the day of the experiment cells were washed once with HBSS. After wash, 100 μL of test compound was added to each well. The plate was incubated at 37° C. with 5% CO2 for 2° h. Supernatants were collected and GLP-1 secretion was measured using the Cisbio™ Active GLP-1 HTRF Assay Kit (CisBio). Briefly, Anti-GLP-1-d2 conjugate and Anti-GLP-1 Terbium Cryptate conjugate stock solutions were prepared as per kit instructions. The two solutions were pre-mixed and 10 μL were transferred to a 384-well low volume plate (Greiner; cat #784075). 10 μL of collected supernatants were added to wells already containing the conjugate solution. The plate was covered and incubated at room temperature overnight. The plate was read on an Envision™ plate reader (PerkinElmer).
In Table 53, EC50 values were obtained from the STC-1 GLP-1 production assay for compounds of the present invention are summarized.

Structure (SMILES)	EC50 [1]	EC50 [2]	EC50 [3]
N[C@@H](CO)C(=O)N1CCN(c2cc(N3CCC[C@@H](C(=O)NCCc4ccc(C(F)(F)F)cc4)C3)nc(C(F)(F)F)n2)CC1 [Compound 342, (R)-1-(6-(4-((S)-2-amino-3-hydroxypropanoyl)piperazin-1-yl)-2-(trifluoromethyl)pyrimidin-4-yl)-N-(4-(trifluoromethyl)phenethyl)piperidine-3-carboxamide]	100 to 999 nM	< 100 nM	100 to 999 nM
COCCN1CCN(c2cc(N3CCC[C@@H](C(=O)NCCc4ccc(C(F)(F)F)cc4)C3)nc(C(F)(F)F)n2)CC1 [Compound 328, (R)-1-(6-(4-(2-methoxyethyl)piperazin-1-yl)-2-(trifluoromethyl)pyrimidin-4-yl)-N-(4-(trifluoromethyl)phenethyl)piperidine-3-carboxamide]	< 100 nM	< 100 nM	100 to 999 nM
N#Cc1ccc(CCNC(=O)[C@@H]2CCCN2c2cc(N3CCC(CO)CC3)cc(C(F)(F)F)n2)cc1 [Compound 38]	< 100 nM	< 100 nM	100 to 999 nM
N#CCCC1CCN(c2cc(N3CC[C@H]3C(=O)NCCc3ccc(C#N)cc3)nc(C(F)(F)F)n2)CC1 [Compound 230, (S)-1-(6-(4-(2-cyanoethyl)piperidin-1-yl)-2-(trifluoromethyl)pyrimidin-4-yl)-N-(4-cyanophenethyl)azetidine-2-carboxamide]	< 100 nM	< 100 nM	100 to 999 nM
COc1cc(C(F)(F)F)ccc1CCNC(=O)[C@@H]1CCN1c1cc(N2CCC(CCCC(=O)O)CC2)nc(C(F)(F)F)n1 [Compound 240, (S)-4-(1-(6-(2-((2-methoxy-4-(trifluoromethyl)phenethyl)carbamoyl)azetidin-1-yl)-2-(trifluoromethyl)pyrimidin-4-yl)piperidin-4-yl)butanoic acid]	< 100 nM	< 100 nM	< 100 nM
N#Cc1ccc(CCNC(=O)[C@@H]2CCN2c2cc(N3CCC(CCC(=O)NCCS(=O)(=O)O)CC3)nc(C(F)(F)F)n2)cc1 [Compound 262]	< 100 nM	< 100 nM	100 to 999 nM
N#Cc1ccc(CCNC(=O)[C@@H]2CCN2c2cc(N3CCC(CCC(=O)O)CC3)nc(C(F)(F)F)n2)cc1 [Compound 227, (S)-3-(1-(6-(2-((4-cyanophenethyl)carbamoyl)azetidin-1-yl)-2-(trifluoromethyl)pyrimidin-4-yl)piperidin-4-yl)propanoic acid]	< 100 nM	< 100 nM	100 to 999 nM

The next lines start with the values.

EC50 [1]	EC50 [2]	EC50 [3]	Structure (SMILES)
< 100 nM	< 100 nM	100 to 999 nM	COc1cc(C(F)(F)F)ccc1CCNC(=O)[C@@H]1CCN1c1cc(N2CCC(CCO)CC2)nc(C(F)(F)F)n1 [Compound 238, (5)-1-(6-(4-(2-hydroxyethyl)piperidin-1-yl)-2-(trifluoromethyl)pyrimidin-4-yl)-N-(2-methoxy-4-(trifluoromethyl)phenethyl)azetidine-2-carboxamide]
< 100 nM	< 100 nM	100 to 999 nM	N#CCCN1CCN(c2cc(N3CCC[C@H]3C(=O)NCCc3ccc(C(F)(F)F)cc3)nc(C(F)(F)F)n2)CC1 [Compound 10]
< 100 nM	< 100 nM	100 to 999 nM	N#CCCN1CCN(c2cc(N3CC[C@H]3C(=O)NCCc3ccc(C#N)cc3)nc(C(F)(F)F)n2)CC1 [Compound 229, (S)-1-(6-(4-(2-cyanoethyl)piperazin-1-yl)-2-(trifluoromethyl)pyrimidin-4-yl)-N-(4-cyanophenethyl)azetidine-2-carboxamide]
< 100 nM	< 100 nM	100 to 999 nM	CN(C)CCC1CCN(c2cc(N3CC[C@H]3C(=O)NCCc3ccc(C#N)cc3)nc(C(F)(F)F)n2)CC1 [Compound 228, (S)-N-(4-cyanophenethyl)-1-(6-(4-(2-(dimethylamino)ethyl)piperidin-1-yl)-2-(trifluoromethyl)pyrimidin-4-yl)azetidine-2-carboxamide]
< 100 nM	< 100 nM	100 to 999 nM	N#Cc1ccc(CCNC(=O)[C@@H]2CCCN2c2cc(N3CCC(CCNS(=O)(=O)CCNC(=O)NCCC(=O)O)CC3)nc(C(F)(F)F)n2)cc1 [Compound 371, (S)-3-(3-(3-((2-(1-(6-(2-((4-cyanophenethyl)carbamoyl)pyrrolidin-1-yl)-2-(trifluoromethyl)pyrimidin-4-yl)piperidin-4-yl)ethyl)amino)-2-sulfonyl)ethylureido)propanoic acid]
< 100 nM	< 100 nM	< 100 nM	CCOC(=O)CCNC(=O)NCCC1CCN(c2cc(N3CCC[C@@H](C(=O)NCCc4ccc(C#N)cc4)C3)nc(C(F)(F)F)n2)CC1 [Compound 346, (R)-ethyl 3-(3-(2-(1-(6-(3-((4-cyanophenethyl)carbamoyl)piperidin-1-yl)-2-(trifluoromethyl)pyrimidin-4-yl)piperidin-4-yl)ethyl)ureido)propanoate]
< 100 nM	< 100 nM	100 to 999 nM	CN(C)CCN1CCN(c2cc(N3CCC[C@@H](C(=O)NCCc4ccc(C#N)cc4)C3)nc(C(F)(F)F)n2)CC1 [Compound 333, (R)-N-(4-cyanophenethyl)-1-(6-(4-(2-(dimethylamino)ethyl)piperazin-1-yl)-2-(trifluoromethyl)pyrimidin-4-yl)piperidine-3-carboxamide]
